Data taken from article PMC7581941, “Schedule-Dependent Synergy Between the Histone Deacetylase Inhibitor Belinostat and the Dihydrofolate Reductase Inhibitor Pralatrexate in T-and B-cell Lymphoma Cells in vitro” (Frontiers in Cell and Developmental Biology, 2020).
Read-outs that look alike come from different tables or passages of the source.

How the values were obtained:
SUDHL-4 cells [1] = assay: Cell growth inhibition (cell counting) and median-drug effect analysis, SUDHL-4; type: cell-based; details: Homo sapiens, SU-DHL-4, read-out: IC50 (50% growth inhibition); SUDHL 4, 72 h exposure
Hut-29 = assay: Cell growth inhibition (MTT) and median-drug effect analysis, Hut-29; type: cell-based; details: read-out: IC50 (50% growth inhibition); Hut-29, 72 h exposure
Description: (§1) Cells were treated immediately with a drug dilution series in cell culture medium (75 μL/well). After an incubation period of approximately 72 h, growth in the 96-wells plates was assessed by adding 15 μL MTT solution (stock solution 5 mg/ml in PBS, final concentration 0.5 mg/ml in culture medium) to each well. After incubation for 3 h in the 5% CO2 incubator with 100% humidity at 37°C, 150 μL acidified 2-propanol was added to the plates to dissolve the formazan crystals. The yellow-colored MTT stock solution is taken up and reduced to a purple formazan in living cells, which directly correlates to the amount of viable cells. As final step, the plates were measured at 540 (or 492) nm by the SPECTRAfluor spectrophotometer.
(§2) Drug interaction in combination experiments was evaluated using the median-drug effect analysis using CalcuSyn software ([Bijnsdorp et al., 2011]). In order to evaluate combination indexes [CI] from different experiments, the CI values at Fraction Affected (FA) values >0.5 (preferably around 0.5, 0.75, and 0.9) were averaged for each specific experiment. The means of the separate experiments were subsequently averaged so that a mean ± Standard Error of the Mean (SEM) was calculated from three or more separate experiments. […]

Jeko-1 = assay: Cell growth inhibition (MTT) and median-drug effect analysis, Jeko-1; type: cell-based; details: Homo sapiens, read-out: IC50 (50% growth inhibition); Jeko-1, 72 h exposure
Description: Cells were plated in 96-wells flat bottom plates, at 3,000 or 6,000 cells per well in culture medium (75 μL/well) or in 24-wells plates (60,000 cells/well) for the counting assays for which a Coulter Counter was used. Cells were treated immediately with a drug dilution series in cell culture medium (75 μL/well). […] After incubation for 3 h in the 5% CO2 incubator with 100% humidity at 37°C, 150 μL acidified 2-propanol was added to the plates to dissolve the formazan crystals. The yellow-colored MTT stock solution is taken up and reduced to a purple formazan in living cells, which directly correlates to the amount of viable cells. As final step, the plates were measured at 540 (or 492) nm by the SPECTRAfluor spectrophotometer. […] Drug interaction in combination experiments was evaluated using the median-drug effect analysis using CalcuSyn software ([Bijnsdorp et al., 2011]). […] The means of the separate experiments were subsequently averaged so that a mean ± Standard Error of the Mean (SEM) was calculated from three or more separate experiments. […] Drug combinations were designed based on the standard CalcuSyn approach in which a series of drug concentrations were combined in a fixed molar ratio, based on the IC50 of each drug. […]

CCRF-CEM = assay: Cell growth inhibition (MTT), CCRF-CEM; type: cell-based, human; details: Homo sapiens, read-out: IC50 (50% growth inhibition); CCRF-CEM, 72 h exposure
Description: as §1

Karpas-299 = assay: Cell growth inhibition (MTT) and median-drug effect analysis, Karpas-299; type: cell-based; details: Homo sapiens, read-out: IC50 (50% growth inhibition); Karpas-299, 72 h exposure
Description: as §1, §2

HT cells [2] = assay: FACS propidium iodide staining: cell cycle distribution and cell death, HT; type: cell-based
Description: (§3) Propidium iodide staining (DNA staining) was used to determine cell cycle distribution and the extent of cell death. Cells (120,000 per well in a 24-wells plate) were exposed to PLX or BLS or the combination for 24, 48, or 72 h. Cells were harvested, suspended in 1.0 ml phosphate buffered saline/1% Bovine serum albumin and fixed with 70% ethanol. After centrifugation the pellet was resuspended in hypotonic propidium iodide (0.1 mg/ml), Triton-X-100 (0.1%), sodium citrate (1 mg/ml) and RNAse A (0.5 mg/ml) (final concentrations in saline) and stored in dark on ice for 30 min ([De Wilt et al., 2012]). DNA content of the cells to determine cell cycle effects and cell kill was analyzed by a FACScalibur (Becton Dickinson Immunocytometry Systems, San Jose, CA, United States) with an acquisition of 10,000 events as described previously ([De Wilt et al., 2012]).

SUDHL-5 cells = assay: Cell growth inhibition (MTT) and median-drug effect analysis, SUDHL-5; type: cell-based; details: Homo sapiens, SU-DHL-5, read-out: IC50 (50% growth inhibition); SUDHL 5, 72 h exposure
Description: as §1
Drug interaction in combination experiments was evaluated using the median-drug effect analysis using CalcuSyn software ([Bijnsdorp et al., 2011]). In order to evaluate combination indexes [CI] from different experiments, the CI values at Fraction Affected (FA) values >0.5 (preferably around 0.5, 0.75, and 0.9) were averaged for each specific experiment. The means of the separate experiments were subsequently averaged so that a mean ± Standard Error of the Mean (SEM) was calculated from three or more separate experiments. […] Drug combinations were designed based on the standard CalcuSyn approach in which a series of drug concentrations were combined in a fixed molar ratio, based on the IC50 of each drug. A variation of this approach was a sequential scheduling in which cells were exposed for 72 h to BLS, while in the combination PLX was added after 24 h and cells were exposed from 24 to 72 h. In the non-fixed ratio approach one drug was used at the IC25 (concentration that results in 25% growth inhibition) and the other drug was added in a concentration range.

SUDHL-4 cells [3] = assay: FACS propidium iodide staining: cell death, SUDHL-4; type: cell-based; details: drugs at their IC50, untreated 5.0%
Description: as §3

lymphoma cell lines = assay: Cell growth inhibition and median-drug effect analysis, panel of lymphoma cell lines; type: cell-based
Description: Cells were plated in 96-wells flat bottom plates, at 3,000 or 6,000 cells per well in culture medium (75 μL/well) or in 24-wells plates (60,000 cells/well) for the counting assays for which a Coulter Counter was used. Cells were treated immediately with a drug dilution series in cell culture medium (75 μL/well). […] After incubation for 3 h in the 5% CO2 incubator with 100% humidity at 37°C, 150 μL acidified 2-propanol was added to the plates to dissolve the formazan crystals. The yellow-colored MTT stock solution is taken up and reduced to a purple formazan in living cells, which directly correlates to the amount of viable cells. As final step, the plates were measured at 540 (or 492) nm by the SPECTRAfluor spectrophotometer. […] Drug interaction in combination experiments was evaluated using the median-drug effect analysis using CalcuSyn software ([Bijnsdorp et al., 2011]). […] The means of the separate experiments were subsequently averaged so that a mean ± Standard Error of the Mean (SEM) was calculated from three or more separate experiments. […] Drug combinations were designed based on the standard CalcuSyn approach in which a series of drug concentrations were combined in a fixed molar ratio, based on the IC50 of each drug. A variation of this approach was a sequential scheduling in which cells were exposed for 72 h to BLS, while in the combination PLX was added after 24 h and cells were exposed from 24 to 72 h.

HT cells [4] = assay: Cell growth inhibition (cell counting) and median-drug effect analysis, HT; type: cell-based; details: for IC50: HT
FRβ = target: T1, FRβ (Homo sapiens, UniProt P14207); assay: Intact cell binding assay, displacement of radio-active folic acid from CHO-FRβ cells; details: folic acid set at 1
T1 construct: expressed in transfected cells; host or cells: CHO-FRβ cells
T1 sequence (P14207 17-255, species assumed): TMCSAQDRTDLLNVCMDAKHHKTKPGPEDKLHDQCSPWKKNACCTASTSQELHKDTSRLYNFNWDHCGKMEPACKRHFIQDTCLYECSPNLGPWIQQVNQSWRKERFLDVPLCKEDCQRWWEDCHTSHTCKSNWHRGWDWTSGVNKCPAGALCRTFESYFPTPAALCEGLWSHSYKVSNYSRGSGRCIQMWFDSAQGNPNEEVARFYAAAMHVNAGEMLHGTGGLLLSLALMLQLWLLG
Description: (§4) In order to determine to which extent PLX was a substrate for either the folate receptors, RFC or PCFT we used competition experiments in cell lines overexpressing either transporter ([Westerhof et al., 1995a], [b]; [Jansen et al., 1997]; [Ifergan et al., 2008]; [Lasry et al., 2008]; [van der Heijden et al., 2009]). For FRα and FRβ, we used an intact cell binding assay for competitive binding with KB cells and CHO-FRβ cells, respectively. […] For RFC we used a competition assay with 5 μM [^3H]-l-LV in CCRF-CEM/7A cells (RFC+++) for 2 min at 37°C. CEM-7A cells overexpress the RFC 30-fold over wild-type CCRF-CEM cells ([Jansen et al., 1990], [1997]).

FRα = target: T2, FRα (Homo sapiens, UniProt P15328); assay: Intact cell binding assay, displacement of radio-active folic acid from KB cells; details: inverse ratio of compound to displace 50% of radio-active folic acid, folic acid set at 1
T2 construct: endogenous in cells; host or cells: KB cells
T2 sequence (P15328 25-257): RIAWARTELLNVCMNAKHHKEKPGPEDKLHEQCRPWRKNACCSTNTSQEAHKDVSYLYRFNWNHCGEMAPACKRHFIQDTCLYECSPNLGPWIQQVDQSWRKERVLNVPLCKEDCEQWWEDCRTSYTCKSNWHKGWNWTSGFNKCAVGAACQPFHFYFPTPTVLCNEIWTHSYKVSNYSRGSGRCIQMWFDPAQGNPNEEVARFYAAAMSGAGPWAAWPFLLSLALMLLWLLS
Description: as §4

IC50 (SUDHL-4 cells [1]) [nM] | IC50 (CCRF-CEM) [nM] | IC50 (Karpas-299) [nM] | IC50 (SUDHL-5 cells) [nM] | IC50 (lymphoma cell lines; 72 hr exposure, panel of cell lines, read-out: IC50, range over the cell lines) [nM] | FRβ relative affinity (FRβ) | FR-α relative affinity (FRα) | SMILES | IC50 (Hut-29) [nM] | IC50 (Jeko-1) [nM] | accumulation of cells in the S-phase (HT cells [2]; 72 h exposure at IC50) | accumulation of cells in the sub-G1 phase (cell death) (HT cells [2]; drugs at their IC50, untreated 3.5%) [%] | accumulation of cells in the sub-G1 phase (cell death) (SUDHL-4 cells [3]) [%] | effect of l-LV on sensitivity to BLS (lymphoma cell lines; data not shown) | IC25 (concentration that results in 25% growth inhibition) (HT cells [4]; HT cells, 72 h) [nM] | IC50 (HT cells [4]; Homo sapiens, 72 h, read-out: IC50 (50% growth inhibition), HT, 72 h exposure) [nM] | IC50 (HT cells [4]; read-out: IC50 (50% growth inhibition), 72 h exposure) [nM]
72.3 ± 5 | 95.8 ± 16.1 | 203 ± 21 | 112 ± 15 | 72 to 233 |  |  | O=C(/C=C/c1cccc(S(=O)(=O)Nc2ccccc2)c1)NO [BLS, Belinostat] | 97 ± 12 | 103 ± 11 | more pronounced | 21 | 15.5 | did not affect sensitivity | ~100 | ~220 | 223 ± 23
 |  |  |  |  | 1 | 1 | Nc1nc(=O)c2nc(CNc3ccc(C(=O)N[C@@H](CCC(=O)O)C(=O)O)cc3)cnc2[nH]1 [FA, Folic acid] |  |  |  |  |  |  |  |  | 
